In patent US11564875B2, “Cosmetic composition for skin regeneration” (Amorepacific Corporation, priority 2018, dated 2023):

Columns and labels:
[1] = Cytotoxicity evaluation using a serum-free media; type: cell-based
Procedure: A cytotoxicity evaluation of the compound represented by Chemical Formula 1-1 was twice performed by using a serum-free media, and the results are shown in FIGS. 5 and 6. Referring to FIGS. 5 and 6, a significant cytotoxicity concentration of the compound represented by Chemical Formula 1-1 was 20 μM (cell viability<80%).

[2] = system: AQP3, PPAR-α, PPAR-β, K5, and K14 gene level in human keratinocyte cell line (HaCaT cells); experiment: Skin regeneration effect after ultraviolet (UV) irradiation: gene level changes in UVA-irradiated HaCaT cells; type: cell-based; details: for skin regeneration effect: HaCaT cells
Description: A human keratinocyte cell line (HaCaT cells) was irradiated with ultraviolet (UVA) (2 J/cm^2, 3 J/cm^2) and then, treated with a compound represented by Chemical Formula 1-1 (camellenodiol), which was obtained by extracting 10 kg of dry camellia powder with water-soluble ethanol and subsequently, performing filtration, concentration under a reduced pressure, and purification by using HP-20 and silica chromatography, to exam AQP3, PPAR-α, PPAR-β, K5, and K14 gene level changes, and the results are shown in FIGS. 1 to 4.

SMILES: CC1(C)CC[C@]2(O)C(=O)C[C@]3(C)C(=CC[C@@H]4[C@@]5(C)CC[C@H](O)C(C)(C)[C@@H]5CC[C@]43C)[C@@H]2C1 [Chemical Formula 1-1, camellenodiol]
- cell viability ([1]; at 20 μM): < 80%
- significant cytotoxicity concentration ([1]; performed twice, criterion cell viability<80%, FIGS. 5 and 6): 20 µM
- levels of the genes (AQP3, PPAR-α, PPAR-β, K5, K14) ([2]; HaCaT cells after UVA irradiation (2 J/cm^2, 3 J/cm^2), compound at 5 μM to 10 μM, specifically 7.5 μM, FIGS. 1 to 4): significantly increased
- skin regeneration effect ([2]; UVA 2 J/cm^2, compound at 7.5 μM to 10 μM): excellent skin regeneration effect
- skin regeneration effect ([2]; UVA 3 J/cm^2, compound at 5 μM to 7.5 μM): excellent skin regeneration effect
